Test: xn = mol fraction of the nth substance listed
Conditions: 100 kPa

CCCC[n+]1ccn(C)c1.O=S(=O)([N-]S(=O)(=O)C(F)(F)F)C(F)(F)F + CCO
viscosity [mPa·s]
Conditions | x1 = 0.2129 | x1 = 0.2688 | x1 = 0.4215 | x1 = 0.4606 | x1 = 0.5784 | x1 = 0.6609 | x1 = 0.747 | x1 = 0.8264 | x1 = 1
307.85 K | – | – | – | – | – | 15.81 | 19.9 | 23.3 | 34.7
308.15 K | 3.69 | – | 8.06 | 9.01 | 13.11 | – | 19.7 | 23 | 34.3
308.45 K | – | 4.5 | 7.99 | 8.94 | 13 | – | – | 22.8 | 33.9
308.76 K | 3.64 | 4.47 | – | 8.86 | – | 15.39 | – | 22.5 | 33.5
309.06 K | 3.61 | – | 7.86 | 8.79 | 12.77 | 15.25 | 19.2 | 22.3 | 33.1
309.36 K | 3.59 | 4.4 | 7.8 | 8.72 | 12.66 | 15.11 | 19 | 22.1 | 32.8
309.67 K | 3.56 | 4.37 | – | 8.65 | 12.55 | 14.98 | 18.8 | 21.8 | –
309.97 K | 3.54 | 4.34 | 7.67 | – | 12.44 | 14.85 | – | 21.6 | 32.1
310.27 K | 3.52 | 4.31 | 7.61 | 8.51 | 12.33 | 14.71 | 18.4 | 21.4 | 31.7
310.58 K | 3.49 | 4.28 | 7.55 | 8.44 | 12.22 | 14.58 | – | 21.1 | 31.4
310.88 K | – | 4.25 | 7.49 | 8.38 | – | 14.45 | 18.09 | – | 31
311.18 K | 3.44 | 4.22 | 7.43 | – | 12.01 | 14.33 | 17.92 | 20.7 | 30.7
311.48 K | – | 4.19 | 7.37 | 8.24 | 11.91 | 14.2 | 17.75 | 20.5 | 30.4
311.79 K | 3.39 | 4.16 | 7.31 | – | – | 14.07 | – | – | 30.1
312.09 K | 3.37 | – | 7.25 | 8.11 | 11.7 | – | 17.42 | 20.1 | 29.7
312.39 K | 3.35 | – | 7.19 | – | 11.6 | 13.83 | 17.26 | 19.8 | 29.4
312.7 K | 3.32 | – | 7.13 | 7.98 | 11.5 | 13.7 | 17.1 | 19.6 | 29.1
313 K | 3.3 | 4.04 | 7.08 | 7.92 | 11.4 | 13.58 | – | 19.4 | –
313.3 K | 3.28 | 4.02 | – | 7.86 | 11.3 | 13.46 | 16.78 | 19.2 | 28.5
313.61 K | 3.26 | 3.99 | 6.96 | 7.8 | 11.21 | 13.34 | 16.62 | – | 28.2
313.91 K | 3.23 | 3.96 | 6.91 | 7.74 | 11.11 | – | – | 18.8 | 27.9
314.21 K | – | – | 6.86 | 7.68 | 11.02 | 13.11 | – | 18.6 | 27.6
314.52 K | 3.19 | 3.9 | 6.8 | 7.62 | – | 13 | – | 18.5 | 27.3
314.82 K | 3.17 | 3.88 | 6.75 | 7.56 | 10.83 | – | 16.02 | 18.3 | 27.1
315.12 K | 3.14 | 3.85 | 6.7 | 7.5 | 10.74 | 12.77 | 15.87 | – | 26.8
315.42 K | 3.12 | – | 6.64 | 7.44 | 10.64 | – | 15.72 | 17.9 | 26.5
315.73 K | 3.1 | 3.79 | – | 7.38 | – | – | 15.58 | 17.7 | 26.2
316.03 K | 3.08 | – | 6.54 | 7.33 | 10.46 | 12.44 | 15.43 | 17.5 | 26
316.33 K | 3.06 | 3.74 | 6.49 | – | 10.38 | 12.33 | 15.29 | 17.4 | 25.7
316.64 K | 3.03 | 3.71 | – | 7.21 | – | 12.22 | 15.15 | 17.2 | –
316.94 K | 3.01 | 3.69 | 6.39 | 7.16 | 10.2 | – | 15.01 | – | 25.2
317.24 K | 2.99 | 3.66 | 6.34 | 7.1 | 10.11 | – | 14.88 | 16.9 | 24.9
317.55 K | 2.97 | – | – | 7.05 | – | 11.91 | 14.74 | 16.7 | 24.7
317.85 K | 2.95 | 3.61 | – | 6.99 | 9.94 | – | 14.6 | 16.5 | –
318.15 K | 2.93 | – | 6.2 | – | 9.86 | 11.7 | 14.47 | 16.3 | 24.2
318.45 K | 2.91 | 3.56 | 6.15 | 6.89 | 9.78 | 11.6 | 14.34 | – | 23.9
318.76 K | 2.89 | 3.53 | 6.1 | – | – | 11.5 | 14.21 | 16.02 | –
319.06 K | – | 3.51 | 6.06 | 6.78 | 9.61 | 11.4 | 14.08 | 15.86 | 23.5
319.36 K | 2.85 | 3.48 | 6.01 | 6.73 | 9.53 | 11.3 | 13.95 | 15.71 | 23.2
319.67 K | 2.83 | 3.46 | – | 6.68 | 9.45 | 11.2 | – | 15.55 | 23
319.97 K | 2.81 | 3.43 | 5.92 | – | – | 11.1 | 13.7 | 15.4 | 22.8
320.27 K | 2.79 | 3.41 | 5.88 | 6.58 | – | 11.01 | – | – | 22.6
320.58 K | 2.77 | 3.38 | – | 6.53 | 9.22 | 10.91 | 13.45 | 15.09 | 22.3
320.88 K | 2.75 | 3.36 | 5.79 | 6.48 | 9.14 | 10.82 | 13.33 | 14.95 | 22.1
321.18 K | 2.73 | 3.34 | 5.74 | – | 9.06 | – | 13.21 | 14.8 | 21.9
321.48 K | 2.71 | 3.31 | 5.7 | 6.38 | 8.99 | 10.63 | – | 14.66 | 21.7
321.79 K | 2.69 | – | 5.66 | – | 8.91 | 10.54 | 12.97 | 14.51 | 21.5
322.09 K | – | 3.27 | – | 6.29 | 8.84 | 10.45 | 12.86 | 14.37 | –
322.39 K | 2.65 | 3.24 | 5.58 | 6.24 | 8.76 | 10.36 | – | 14.23 | 21.1
322.7 K | 2.63 | 3.22 | 5.53 | 6.19 | 8.69 | 10.27 | – | 14.09 | 20.9
323 K | 2.62 | 3.2 | 5.49 | – | 8.62 | 10.18 | 12.51 | 13.96 | 20.7

Source: a compilation of properties of binary mixtures (doi:10.1016/j.molliq.2018.02.064)
